Assay [1] concerns the target L-lactate dehydrogenase A chain (Homo sapiens, UniProt P00338). Kind of assay: Inhibition of human LDHA using pyruvate as substrate assessed as disappearance of NADH preincubated for 10 mins followed by substrate addition every 2.5 secs for 10 mins by fluorescence analysis.
The test system of assay [2] is MCF7. Kind of assay: Cytotoxicity against human MCF7 cells after 72 hrs by MTT assay. It is filed as functional, cell-based. Conditions: MCF7, 72 h.
Assay [3] concerns MCF7. Kind of assay: Reduction in lactate production in human MCF7 cells at 10 uM after 12 hrs. It is filed as functional, cell-based.
In assay [4] the test system is MCF7. Nature of the assay: Reduction in lactate production in human MCF7 cells at 5 uM after 12 hrs. It is filed as functional, cell-based.
For assay [5], the system named is MCF7. Kind of assay: Reduction in lactate production in human MCF7 cells at 5 to 10 uM after 12 hrs. It is filed as functional, cell-based.
Assay [6] deals with MCF7. Kind of assay: Increase in oxygen consumption rate in human MCF7 cells at 2 to 10 uM after 12 hrs by extracellular flux analysis. It is filed as functional, cell-based.
The subject of assay [7] is MCF7. Nature of the assay: Decrease in extracellular acidfication rate in human MCF7 cells at 2 to 10 uM after 12 hrs by extracellular flux analysis. Format: functional, cell-based.
Assay [8] concerns MCF7. Kind of assay: Decrease in proton production rate in human MCF7 cells at 2 to 10 uM after 12 hrs by extracellular flux analysis. It is filed as functional, cell-based.

Activity calls are given as the source filed them. No cut-off for these calls is given here.

As for `CCCC(=O)N(c1ccc2oc(C)c(C(=O)OCC)c2c1)S(=O)(=O)c1ccc(OC)cc1`, the IC50 in assay [1] was 3.5 µM; in assay [2], over 30 µM.
On the same counts, the results for `Cc1nc(C)c(C(=O)OC[C@H]2CCCO2)c(-c2ccccc2C(F)(F)F)c1C(=O)O` are 7.8 µM and 10.8 µM.
Take `COc1ncc(-c2ccc3c(Nc4cccc(C(=O)O)c4)c(S(N)(=O)=O)cnc3c2)c(OC)n1`: the IC50 in assay [1] is 4.8 µM; in assay [2], over 30 µM. The result in assay [3] was Active.
Consider `Cc1ccccc1OC[C@H](O)Cn1c(NCc2ccccc2)nc2c1c(=O)n(C)c(=O)n2C`, for which the IC50 in assay [1] was determined as 0.25 µM; in assay [2] it was 1.54 µM. Moreover, the result in assay [4], in assay [5] and in assay [6] was Active. Besides, the inhibition result in assay [7] and in assay [8] was “Active” throughout.
For `Cn1c(=O)c2c(nc(NCc3ccccc3)n2C[C@@H](O)COc2ccc(Cl)cc2)n(C)c1=O`, the IC50 in assay [1] stood at 2.3 µM; in assay [2], 3.5 µM.

For the origin of these results see ChEMBL document CHEMBL3745616, “Identification of a potent inhibitor targeting human lactate dehydrogenase A and its metabolic modulation for cancer cell line” (Bioorg Med Chem Lett, 2016).
